In patent publication US20090291945A1, “CYSTEINE PROTEASE INHIBITORS” (Teijin Pharma Limited, priority 2008, published 2009):

Each compound was assayed against T1, cathepsin K (Homo sapiens, UniProt P43235) (assay: Cathepsin K inhibitory activity (fluorescent substrate Z-Leu-Arg-MCA)). Details: enzyme expressed in HEK293T; 15 min preincubation, 30 min reaction at room temperature, pH 5.5; read-out: Activity Intensity (cathepsin K inhibitory activity, pIC50 class) (converted).
T1 construct: the active enzyme was obtained as the enzyme fraction by using detergent containing lysis buffer; made in house; host or cells: HEK293T (GenHunter Corporation), transient expression; detergent lysate used as enzyme fraction
T1 sequence (P43235 115-329): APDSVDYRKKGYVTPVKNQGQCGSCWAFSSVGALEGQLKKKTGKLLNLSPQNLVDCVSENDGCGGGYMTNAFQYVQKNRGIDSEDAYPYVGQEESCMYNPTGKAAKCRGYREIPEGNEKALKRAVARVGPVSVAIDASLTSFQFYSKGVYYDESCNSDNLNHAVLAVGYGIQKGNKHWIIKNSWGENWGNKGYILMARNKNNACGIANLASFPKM
Type: biochemical
Method: Cathepsin K inhibitory activities of the compounds synthesized according to the methods of the above examples were measured.
Cathepsin K used for evaluation of inhibitory activity was transiently expressed in an animal cell HEK293T (made by GenHunter Corporation) and the active enzyme was obtained as the enzyme fraction by using detergent containing lysis buffer.
The enzyme solution A was prepared at 2.1 times final concentration by diluting the enzyme fraction with assay buffer (50 mM sodium acetate, 50 mM sodium chloride, 2 mM DTT, pH 5.5). The test compound solutions B were prepared at 50 times final target concentrations by dimethylsulfoxide (DMSO). As a substrate solution C, a solution of a fluorescent substrate, benzyloxycarbonyl-L-leucyl-L-arginyl-4-methyl-coumaryl-7-amide (Z-Leu-Arg-MCA (Peptide Institute Inc.), was prepared at 10 μM by an assay buffer.
To the enzyme solution A (38.4 μL) were added the test compound solutions B (1.6 μL) and mixed individually. The mixtures were incubated at room temperature for 15 minutes. To the incubated solutions were added the substrate solution C (40 μL) and the mixtures were reacted at room temperature for 30 minutes respectively. The fluorescence intensities of the enzyme reaction solutions were measured at excitation wavelength of 355 nm and measurement wavelength of 460 nm and the enzyme activities were calculated from these fluorescence intensities caused by 7-amino-4-methylcoumarine released. The enzyme activity with using DMSO instead of the test compound solution B was taken as 100% and the inhibitory rates at each concentration of the test compound were calculated. The […] response curve was fitted to the plots. The 50% inhibitory concentration against cathepsin K was calculated from this curve.
Note that the symbols (+, ++, and +++) in this table represent the inhibitory activity values as below. Here, pIC50 is the value representing a negative logarithm of IC50, (−log10(IC50)). IC50 is a 50% inhibitory concentration.

IC50 [µM]	Compound
0.0316 to 10	CC[C@@H](CNc1ccccc1N1CCOCC1)NC(=O)[C@H](CC(C)C)N[C@@H](c1ccccc1)C(F)(F)F [Compound 88]
≤ 0.00316	CC[C@@H](CNc1ccc(OCC(=O)N(C)OC)cc1OC)NC(=O)[C@H](CC(C)C)N[C@@H](c1ccccc1)C(F)(F)F [Compound 89]
0.0316 to 10	CC[C@@H](CNc1ccc(OCC(F)(F)F)cc1)NC(=O)[C@H](CC(C)C)N[C@@H](c1ccccc1)C(F)(F)F [Compound 90]
≤ 0.00316	CC(C)(F)C[C@H](N[C@@H](c1ccccc1)C(F)(F)F)C(=O)N[C@@H](CCC#N)CNc1ccc(N2CCOCC2)cc1 [Compound 94]
≤ 0.00316	CC[C@@H](CNc1ccc(OC)cc1OC)NC(=O)[C@H](CC(C)C)N[C@@H](c1ccc(OC)cc1)C(F)(F)F [Compound 95]
0.00316 to 0.0316	CC[C@@H](CNc1ccc(OCc2ccccc2)cc1)NC(=O)[C@H](CC(C)C)N[C@@H](c1ccccc1)C(F)(F)F [Compound 96]
0.00316 to 0.0316	CC[C@@H](CNc1ccc(OCc2ccccc2)cc1)NC(=O)[C@H](CC(C)C)N[C@@H](c1ccc(OC)cc1)C(F)(F)F [Compound 97]
0.0316 to 10	CC[C@@H](CNc1ccc2c(c1)OCO2)NC(=O)[C@H](CC(C)C)N[C@@H](c1ccccc1)C(F)(F)F [Compound 99]
≤ 0.00316	CC[C@@H](CNc1ccc(N2CCC(O)CC2)cc1)NC(=O)[C@H](CC(C)C)N[C@@H](c1ccccc1)C(F)(F)F [Compound 108]
0.0316 to 10	COc1ccc(NC[C@H](C)NC(=O)C2(NC(c3ccccc3)C(F)(F)F)CCCCC2)c(OC)c1 (stereo partly shown) [Compound 110]
0.0316 to 10	CCOC(=O)C(F)(F)Oc1ccc(NC[C@H](CC)NC(=O)[C@H](CC(C)(C)F)N[C@@H](c2ccccc2)C(F)(F)F)c(OC)c1 [Compound 111]
0.0316 to 10	CCOC(=O)c1ccnn1-c1ccc(NC[C@H](CC)NC(=O)[C@H](CC(C)C)N[C@@H](c2ccccc2)C(F)(F)F)cc1 [Compound 114]
≤ 0.00316	CC[C@@H](CNc1ccc(OCC(=O)O)cc1OC)NC(=O)[C@H](CC(C)C)N[C@@H](c1ccccc1)C(F)(F)F [Compound 119]
0.00316 to 0.0316	CC[C@@H](CNc1ccc(OCC(=O)O)cc1OC)NC(=O)[C@H](CC(C)C)N[C@@H](c1ccc(=O)[nH]c1)C(F)(F)F [Compound 123]
0.00316 to 0.0316	CC[C@@H](CNc1ccc(OC(C)(C)C(=O)O)cc1OC)NC(=O)[C@H](CC(C)(C)F)N[C@@H](Cc1ccccc1)C(F)(F)F [Compound 132, 2-(4-{[(2S)-2-((2S)-2-{[(1S)-2,2,2-trifluoro-1-benzylethyl]amino}-4-fluoro-4-methylpentanoylamino)butyl]amino}-3-methoxyphenoxy)-2-methylpropanoic acid]
≤ 0.00316	CC[C@@H](CNc1ccc(OCC(N)=O)cc1OC)NC(=O)[C@H](CC(C)(C)F)N[C@@H](c1ccccc1)C(F)(F)F [Compound 133, (2S)—N-[(1S)-1-({[4-(carbamoylmethoxy)-2-methoxyphenyl]amino}methyl)propyl]-2-[((1S)-2,2,2-trifluoro-1-phenylethyl)amino]-4-fluoro-4-methylpentanamide]
≤ 0.00316	CC[C@@H](CNc1ccc(OCC(=O)N(C)C)cc1OC)NC(=O)[C@H](CC(C)(C)F)N[C@@H](c1ccccc1)C(F)(F)F [Compound 134]
≤ 0.00316	CC[C@@H](CNc1ccc(OCC(=O)N2CCCC2)cc1OC)NC(=O)[C@H](CC(C)(C)F)N[C@@H](c1ccccc1)C(F)(F)F [Compound 135]
≤ 0.00316	CC[C@@H](CNc1ccc(OCC(=O)N2CCOCC2)cc1OC)NC(=O)[C@H](CC(C)(C)F)N[C@@H](c1ccccc1)C(F)(F)F [Compound 136]
≤ 0.00316	CC[C@@H](CNc1ccc(OCC(=O)NCCO)cc1OC)NC(=O)[C@H](CC(C)(C)F)N[C@@H](c1ccccc1)C(F)(F)F [Compound 137]
≤ 0.00316	CC[C@@H](CNc1ccc(OCC[S+](C)[O-])cc1OC)NC(=O)[C@H](CC(C)(C)F)N[C@@H](c1ccc(Br)cc1)C(F)(F)F (stereo partly drawn) [Compound 138-1, (2S)-2-{[(1S)-1-(4-bromophenyl)-2,2,2-trifluoroethyl]amino}-N-{(1S)-1-[({2-methoxy-4-[2-(methylsulfinyl)ethoxy]phenyl}amino)methyl]propyl}-4-fluoro-4-methylpentanamide]
≤ 0.00316	CC[C@@H](CNc1ccc(OCCS(C)(=O)=O)cc1OC)NC(=O)[C@H](CC(C)(C)F)N[C@@H](c1ccc(Br)cc1)C(F)(F)F [Compound 138-2, (2S)-2-{[(1S)-1-(4-bromophenyl)-2,2,2-trifluoroethyl]amino}-N-{(1S)-1-[({2-methoxy-4-[2-(methylsulfonyl)ethoxy]phenyl}amino)methyl]propyl}-4-fluoro-4-methylpentanamide]
0.0316 to 10	COc1ccc(NC[C@H](CC[S+](C)[O-])NC(=O)[C@H](CC(C)C)N[C@@H](c2ccccc2)C(F)(F)F)c(OC)c1 (stereo partly drawn) [Compound 139, (2S)—N-((1S)-1-{[(2,4-dimethoxyphenyl)amino]methyl}-3-(methylsulfinyl)propyl)-2-[((1S)-2,2,2-trifluoro-1-phenylethyl)amino]-4-methylpentanamide]
0.0316 to 10	CC[C@@H](CNc1ccc(-n2nccc2C(=O)O)cc1)NC(=O)[C@H](CC(C)C)N[C@@H](c1ccccc1)C(F)(F)F [Compound 143]
≤ 0.00316	CC[C@@H](CNc1ccc(OCCCCC(=O)O)cc1OC)NC(=O)[C@H](CC(C)C)N[C@@H](c1ccccc1)C(F)(F)F [Compound 156]

More lines, now with the values behind:

Compound	IC50 [µM]
CC(C)C[C@H](N[C@@H](c1ccccc1)C(F)(F)F)C(=O)N[C@@H](CCOCc1ccccc1)CNc1ccc(N2CCOCC2)cc1 [Compound 87]	≤ 0.00316
CC(C)C[C@H](N[C@@H](c1ccccc1)C(F)(F)F)C(=O)N[C@@H](CCCC(=O)OC(C)(C)C)CNc1ccc(N2CCOCC2)cc1 [Compound 91]	≤ 0.00316
CC(C)C[C@H](N[C@@H](c1ccccc1)C(F)(F)F)C(=O)N[C@@H](CCC#N)CNc1ccc(N2CCOCC2)cc1 [Compound 92]	≤ 0.00316
CC[C@@H](CNc1ccc2c(c1)OCO2)NC(=O)[C@H](CC(C)C)N[C@@H](c1ccc(OC)cc1)C(F)(F)F [Compound 100]	0.0316 to 10
CC(C)C[C@H](N[C@@H](c1ccccc1)C(F)(F)F)C(=O)N[C@@H](CCCCNC(=O)OCc1ccccc1)CNc1ccc(N2CCOCC2)cc1 [Compound 102]	≤ 0.00316
CC(C)C[C@H](N[C@@H](c1ccccc1)C(F)(F)F)C(=O)N[C@@H](CCCNC(=O)OCc1ccccc1)CNc1ccc(N2CCOCC2)cc1 [Compound 103]	≤ 0.00316
CC(C)C[C@H](N[C@@H](c1ccccc1)C(F)(F)F)C(=O)N[C@@H](CNC(=O)OCc1ccccc1)CNc1ccc(N2CCOCC2)cc1 [Compound 104]	≤ 0.00316
CC(C)C[C@H](N[C@@H](c1ccccc1)C(F)(F)F)C(=O)N[C@@H](CCNC(=O)OCc1ccccc1)CNc1ccc(N2CCOCC2)cc1 [Compound 105]	≤ 0.00316
CC(C)C[C@H](N[C@@H](c1ccccc1)C(F)(F)F)C(=O)N[C@H](CNc1ccc(N2CCOCC2)cc1)CN(C)C [Compound 106]	≤ 0.00316
CCOC(=O)C1(C(C)C)CCN(c2ccc(NC[C@H](CC)NC(=O)[C@H](CC(C)C)N[C@@H](c3ccccc3)C(F)(F)F)cc2)CC1 [Compound 109]	≤ 0.00316
CC[C@@H](CNc1ccc(-n2ccnc2)cc1)NC(=O)[C@H](CC(C)C)N[C@@H](c1ccccc1)C(F)(F)F [Compound 112]	0.0316 to 10
CC[C@@H](CNc1ccc(-n2ccnc2)cc1)NC(=O)[C@H](CC(C)C)N[C@@H](c1ccc(OC)nc1)C(F)(F)F [Compound 113]	0.0316 to 10
CCOC(=O)c1ccnn1-c1ccc(NC[C@H](CC)NC(=O)[C@H](CC(C)C)N[C@@H](c2ccc(OC)nc2)C(F)(F)F)cc1 [Compound 115]	0.0316 to 10
CC[C@H](N[C@@H](CC(C)C)C(=O)N[C@@H](CCS(C)(=O)=O)CNc1ccc(OC)cc1OC)C(F)(F)F [Compound 116]	0.0316 to 10
CC(C)C[C@H](N[C@@H](c1ccccc1)C(F)(F)F)C(=O)N[C@@H](CCCO)CNc1ccc(N2CCOCC2)cc1 [Compound 125]	0.0316 to 10
CC(C)C[C@H](N[C@@H](c1ccccc1)C(F)(F)F)C(=O)N[C@@H](CN)CNc1ccc(N2CCOCC2)cc1 [Compound 128]	0.00316 to 0.0316
CC[C@@H](CNc1ccc(-n2nccc2C(=O)O)cc1)NC(=O)[C@H](CC(C)C)N[C@@H](c1ccc(OC)nc1)C(F)(F)F [Compound 144]	0.0316 to 10
CC[C@@H](CNc1ccc(N2CCC(C(=O)O)CC2)cc1)NC(=O)[C@H](CC(C)C)N[C@@H](c1ccc(OC)nc1)C(F)(F)F [Compound 146]	≤ 0.00316
